Reference: patent US20220324876A1, “4-SUBSTITUTED PYRANO[3,4,b]PYRAZINE KAPPA AGONISTS FOR TREATING DRUG DEPENDENCY” (The Rockefeller University, priority 2019, published 2022)
Like-named read-outs stand apart in the source and are kept apart here.

Target: T1, human kappa opioid receptors (Homo sapiens, UniProt P41145)
T1 construct: expressed in transfected cells; host or cells: U2OS
Test: [35S]GTPγS binding, membranes from U2OS cells
Assay type: biochemical
Conditions: for Emax: read-out: GTPγS (% efficacy)

T1 sequence (P41145 whole entry): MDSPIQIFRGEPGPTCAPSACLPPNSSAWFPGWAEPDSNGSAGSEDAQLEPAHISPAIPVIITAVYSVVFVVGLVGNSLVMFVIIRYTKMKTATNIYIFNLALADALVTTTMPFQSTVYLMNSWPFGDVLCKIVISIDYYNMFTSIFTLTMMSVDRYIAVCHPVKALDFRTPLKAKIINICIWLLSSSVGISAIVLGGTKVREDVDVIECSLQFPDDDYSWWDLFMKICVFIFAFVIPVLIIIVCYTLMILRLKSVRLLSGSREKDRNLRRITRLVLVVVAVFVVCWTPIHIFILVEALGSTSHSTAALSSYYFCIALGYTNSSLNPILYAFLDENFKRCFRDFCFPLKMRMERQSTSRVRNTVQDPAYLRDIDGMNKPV

Row | Compound | EC50 (GTPγS EC50 (nM), Table D) [nM] | Emax [%] | EC50 [nM]
1 | O=C(Cc1ccc(Cl)c(Cl)c1)N1CCN(Cc2cccnc2)[C@@H]2COC[C@H](N3CCCC3)[C@H]21 (racemic) [rac-5A81] | 7.4 | 95 | 
2 | O=C(CN1CCN(C(=O)Cc2ccc(Cl)c(Cl)c2)[C@H]2[C@H]1COC[C@@H]2N1CCCC1)N1CCCC1 (racemic) [rac-5A113] | 70 | 92 | 
3 | O=C(Cc1ccc(Cl)c(Cl)c1)N1CCN(Cc2cn[nH]c2)[C@@H]2COC[C@H](N3CCCC3)[C@H]21 (racemic) [rac-5A107] | 3.9 | 112 | 
4 | O=C(Cc1ccc(Cl)c(Cl)c1)N1CCN(C(=O)c2ccon2)[C@@H]2COC[C@H](N3CCCC3)[C@H]21 (racemic) [rac-5A97] | 0.8 | 88 | 
5 | O=C(Cc1ccc(Cl)c(Cl)c1)N1CCN(Cc2cccc(F)c2)[C@H]2COC[C@@H](N3CCCC3)[C@@H]21 (single isomer, unassigned) [Example 5A145B] | 9.7 | 91 | 
6 | O=C(Cc1ccc(Cl)c(Cl)c1)N1CCN(C(=O)C2(O)CC2)[C@@H]2COC[C@H](N3CCCC3)[C@H]21 (single isomer, unassigned) [Example 5A126A] | 16 | 98 | 
7 | O=C(Cc1ccc(Cl)c(Cl)c1)N1CCN(Cc2ccon2)[C@@H]2COC[C@H](N3CCCC3)[C@H]21 [Example 5A86A] | 1 | 99 | 
8 | O=C(Cc1ccc(Cl)c(Cl)c1)N1CCN(C(=O)CO)[C@H]2COC[C@@H](N3CCCC3)[C@@H]21 (single isomer, unassigned) [Example 5A95B] | 202 | 78 | 
9 | O=C(Cc1ccc(Cl)c(Cl)c1)N1CCN(Cc2cccc(F)c2)[C@@H]2COC[C@H](N3CCCC3)[C@H]21 (single isomer, unassigned) [Example 5A145A] | 5 | 95 | 
10 | O=C(Cc1ccc(Cl)c(Cl)c1)N1CCN(Cc2ncccn2)[C@@H]2COC[C@H](N3CCCC3)[C@H]21 (racemic) [rac-5A69] | 94 | 114 | 
11 | O=C(Cc1ccc(Cl)c(Cl)c1)N1CCN(Cc2ncco2)[C@@H]2COC[C@H](N3CCCC3)[C@H]21 (racemic) [rac-5A111] | 9.8 | 146 | 
12 | NC(=O)CN1CCN(C(=O)Cc2ccc(Cl)c(Cl)c2)[C@H]2[C@H]1COC[C@@H]2N1CCCC1 (racemic) [rac-5A102] | 37 | 96 | 
13 | CS(=O)(=O)CCN1CCN(C(=O)Cc2ccc(Cl)c(Cl)c2)[C@H]2[C@H]1COC[C@@H]2N1CCCC1 (racemic) [rac-5A94] | 27 | 109 | 
14 | O=C(Cc1ccc(Cl)c(Cl)c1)N1CCN(CC2COC2)[C@@H]2COC[C@H](N3CCCC3)[C@H]21 (single isomer, unassigned) [Example 5A83A] | 199 | 141 | 
15 | O=C(Cc1ccc(Cl)c(Cl)c1)N1CCN(CC2CCOC2)[C@@H]2COC[C@H](N3CCCC3)[C@H]21 (stereo partly drawn) [Example 5A93] | 46 | 80 | 
16 | COCCN1CCN(C(=O)Cc2ccc(Cl)c(Cl)c2)[C@H]2[C@H]1COC[C@@H]2N1CCCC1 (single isomer, unassigned) [Example 5A141A] | 37 | 96 | 
17 | O=C(Cc1ccc(Cl)c(Cl)c1)N1CCN(C(=O)CO)[C@@H]2COC[C@H](N3CCCC3)[C@H]21 (single isomer, unassigned) [Example 5A95A] | 21 | 87 | 
18 | Cn1nccc1CN1CCN(C(=O)Cc2ccc(Cl)c(Cl)c2)[C@H]2[C@H]1COC[C@@H]2N1CCCC1 (racemic) [rac-5A104] | 9 | 74 | 
19 | O=C(Cc1ccc(Cl)c(Cl)c1)N1CCN(C(=O)C2(O)CC2)[C@H]2COC[C@@H](N3CCCC3)[C@@H]21 (single isomer, unassigned) [Example 5A126B] | 17 | 107 | 
20 | O=C(Cc1ccc(Cl)c(Cl)c1)N1CCN(CC2CCS(=O)(=O)CC2)[C@@H]2COC[C@H](N3CCCC3)[C@H]21 (racemic) [rac-5A85] |  | 100 | 320
21 | O=C(Cc1ccc(Cl)c(Cl)c1)N1CCN(CCO)[C@@H]2COC[C@H](N3CCCC3)[C@H]21 (single isomer, unassigned) [Example 5A74A] | 21 | 95 | 
22 | O=C(Cc1ccc(Cl)c(Cl)c1)N1CCN(C(=O)C2(O)CCCC2)[C@@H]2COC[C@H](N3CCCC3)[C@H]21 (single isomer, unassigned) [Example 5A125A] | 58 | 95 | 
23 | O=C(Cc1ccc(Cl)c(Cl)c1)N1CCN(Cc2ccc(F)cc2)[C@H]2COC[C@@H](N3CCCC3)[C@@H]21 (single isomer, unassigned) [Example 5A136B] | 74 | 129 | 
24 | O=C(Cc1ccc(Cl)c(Cl)c1)N1CCN(Cc2ccc(F)cc2)[C@@H]2COC[C@H](N3CCCC3)[C@H]21 (single isomer, unassigned) [Example 5A136A] | 7 | 105 | 

Row | Compound | EC50 (GTPγS EC50 (nM), Table D) [nM] | Emax [%] | EC50 [nM]
25 | O=C(Cc1ccc(Cl)c(Cl)c1)N1CCN(CC2COC2)[C@H]2COC[C@@H](N3CCCC3)[C@@H]21 (single isomer, unassigned) [Example 5A83B] | 24 | 113 | 
26 | COCCN1CCN(C(=O)Cc2ccc(Cl)c(Cl)c2)[C@H]2[C@H](N3CCCC3)COC[C@@H]21 (single isomer, unassigned) [Example 5A141B] | 26 | 103 | 
27 | CC(O)CN1CCN(C(=O)Cc2ccc(Cl)c(Cl)c2)[C@H]2[C@H]1COC[C@@H]2N1CCCC1 (stereo partly drawn) [Example 5A89] | 34 | 93 | 
28 | Cn1cc(CN2CCN(C(=O)Cc3ccc(Cl)c(Cl)c3)[C@H]3[C@H]2COC[C@@H]3N2CCCC2)cn1 (racemic) [rac-5A79] |  | 82 | 107
29 | O=C(Cc1ccc(Cl)c(Cl)c1)N1CCN(C(=O)c2ccno2)[C@@H]2COC[C@H](N3CCCC3)[C@H]21 (racemic) [rac-5A121] | 17 | 86 | 
30 | O=C(Cc1ccc(Cl)c(Cl)c1)N1CCN(CC2CCCO2)[C@H]2COC[C@@H](N3CCCC3)[C@@H]21 (single isomer, unassigned) [Example 5A138D] | 100 | 102 | 
31 | O=C(Cc1ccc(Cl)c(Cl)c1)N1CCN(C(=O)c2cc[nH]n2)[C@@H]2COC[C@H](N3CCCC3)[C@H]21 (racemic) [rac-5A122] | 31 | 79 | 
32 | O=C(O)CN1CCN(C(=O)Cc2ccc(Cl)c(Cl)c2)[C@H]2[C@H]1COC[C@@H]2N1CCCC1 (racemic) [rac-5A88] |  | 83 | 2490
33 | COCCS(=O)(=O)N1CCN(C(=O)Cc2ccc(Cl)c(Cl)c2)[C@H]2[C@H](N3CCCC3)COC[C@@H]21 (single isomer, unassigned) [Example 5A146B] | 115 | 127 | 
34 | CC(F)(F)CN1CCN(C(=O)Cc2ccc(Cl)c(Cl)c2)[C@H]2[C@H](N3CCCC3)COC[C@@H]21 [Example 5A127B] | 24 | 88 | 
35 | N#CCN1CCN(C(=O)Cc2ccc(Cl)c(Cl)c2)[C@H]2[C@H]1COC[C@@H]2N1CCCC1 (racemic) [rac-5A87] | 20 | 115 | 
36 | O=C(Cc1ccc(Cl)c(Cl)c1)N1CCN(CCCO)[C@@H]2COC[C@H](N3CCCC3)[C@H]21 (racemic) [rac-5A75] | 39 | 89 | 
37 | O=C(Cc1ccc(Cl)c(Cl)c1)N1CCN(CCC2COC2)[C@@H]2COC[C@H](N3CCCC3)[C@H]21 (single isomer, unassigned) [Example 5A142A] | 70 | 77 | 
38 | O=C(Cc1ccc(Cl)c(Cl)c1)N1CCN(Cc2ccn[nH]2)[C@@H]2COC[C@H](N3CCCC3)[C@H]21 (racemic) [rac-5A108] | 26 | 98 | 
39 | Cc1noc(CN2CCN(C(=O)Cc3ccc(Cl)c(Cl)c3)[C@H]3[C@H]2COC[C@@H]3N2CCCC2)n1 (racemic) [rac-5A105] | 19 | 82 | 
40 | O=C(Cc1ccc(Cl)c(Cl)c1)N1CCN(S(=O)(=O)CCO)[C@H]2COC[C@@H](N3CCCC3)[C@@H]21 (single isomer, unassigned) [Example 5A140B] | 22 | 107 | 
41 | CC(F)(F)CN1CCN(C(=O)Cc2ccc(Cl)c(Cl)c2)[C@H]2[C@H]1COC[C@@H]2N1CCCC1 [Example 5A127A] | 5.3 | 110 | 
42 | CCNC(=O)CN1CCN(C(=O)Cc2ccc(Cl)c(Cl)c2)[C@H]2[C@H]1COC[C@@H]2N1CCCC1 (racemic) [rac-5A112] | 85 | 75 | 
43 | CN(C)S(=O)(=O)N1CCN(C(=O)Cc2ccc(Cl)c(Cl)c2)[C@H]2[C@H](N3CCCC3)COC[C@@H]21 (single isomer, unassigned) [Example 5A56B] | 123 | 122 | 
44 | COCCS(=O)(=O)N1CCN(C(=O)Cc2ccc(Cl)c(Cl)c2)[C@H]2[C@H]1COC[C@@H]2N1CCCC1 (single isomer, unassigned) [Example 5A146A] | 9.2 | 91 | 
45 | O=C(Cc1ccc(Cl)c(Cl)c1)N1CCN(Cc2ccon2)[C@H]2COC[C@@H](N3CCCC3)[C@@H]21 [Example 5A86B] | 23 | 79 | 
46 | O=C(Cc1ccc(Cl)c(Cl)c1)N1CCN(C(=O)c2cn[nH]c2)[C@@H]2COC[C@H](N3CCCC3)[C@H]21 (racemic) [rac-5A123] | 39 | 62 | 
47 | CN(C)S(=O)(=O)N1CCN(C(=O)Cc2ccc(Cl)c(Cl)c2)[C@H]2[C@H]1COC[C@@H]2N1CCCC1 (single isomer, unassigned) [Example 5A56A] | 11 | 77 | 
48 | O=C(Cc1ccc(Cl)c(Cl)c1)N1CCN(Cc2ncon2)[C@@H]2COC[C@H](N3CCCC3)[C@H]21 (racemic) [rac-5A100] | 1.9 | 86 | 
